# The source made the active and inactive calls. The calls are words filed in the database; no cut-off is given here.
# Experiments:
# [1] = molecular target: Sphingosine 1-phosphate receptor 1 (Homo sapiens) (UniProt P21453); test: Agonist activity at S1P1 (unknown origin) relative to control; settings: filed as agonist
# [2] = Apparent permeability across apical to basolateral side in pig LLC-PK1 cells; type: ADME, cell-based, Sus scrofa
# [3] = molecular target: T1, Sphingosine 1-phosphate receptor 3 (Homo sapiens, UniProt Q99500); test: Agonist activity at S1P3 (unknown origin) relative to control
# [4] = molecular target: T1, Sphingosine 1-phosphate receptor 3; test: Agonist activity at S1P3 (unknown origin)
# Sequence of Sphingosine 1-phosphate receptor 1 (Homo sapiens) (P21453 whole entry): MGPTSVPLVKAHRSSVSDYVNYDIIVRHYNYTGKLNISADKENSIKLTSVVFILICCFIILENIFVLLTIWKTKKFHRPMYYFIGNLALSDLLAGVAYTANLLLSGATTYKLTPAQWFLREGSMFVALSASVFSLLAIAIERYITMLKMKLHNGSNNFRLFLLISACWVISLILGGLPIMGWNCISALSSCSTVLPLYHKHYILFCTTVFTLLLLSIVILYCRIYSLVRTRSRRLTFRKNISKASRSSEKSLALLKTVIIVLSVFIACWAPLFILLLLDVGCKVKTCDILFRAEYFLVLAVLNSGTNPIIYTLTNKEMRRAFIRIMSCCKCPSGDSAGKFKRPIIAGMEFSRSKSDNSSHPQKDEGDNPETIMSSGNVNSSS
# T1 sequence (Q99500 whole entry): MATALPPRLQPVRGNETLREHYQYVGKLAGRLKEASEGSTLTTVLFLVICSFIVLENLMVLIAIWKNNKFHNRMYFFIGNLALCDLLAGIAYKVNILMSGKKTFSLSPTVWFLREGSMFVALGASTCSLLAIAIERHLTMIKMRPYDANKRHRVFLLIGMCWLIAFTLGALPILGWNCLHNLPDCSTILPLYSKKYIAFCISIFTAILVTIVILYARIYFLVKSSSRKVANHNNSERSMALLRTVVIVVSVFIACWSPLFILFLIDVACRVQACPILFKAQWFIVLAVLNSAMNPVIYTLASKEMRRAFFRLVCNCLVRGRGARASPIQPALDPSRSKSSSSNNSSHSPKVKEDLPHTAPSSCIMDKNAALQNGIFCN
SMILES,Emax [1] [%],Papp A→B [2] [×10⁻⁶ cm/s],Emax ([3]; filed as agonist) [%],EC50 [4],Emax [3]
Cn1cc(C(=O)Nc2ccc(-c3ccccc3)c(C(F)(F)F)c2)c(=O)c2ccccc21,110,1.2,92,,
Cn1cc(C(=O)Nc2cnc(-c3ccccc3)c(C(F)(F)F)c2)c(=O)c2ccccc21,170,11,,Not Active,inactive
Cn1cc(C(=O)Nc2ccc(-c3ccccc3)c(C(F)(F)F)n2)c(=O)c2cnccc21,120,6.7,,Not Active,inactive
Cn1cc(C(=O)Nc2cc(C(F)(F)F)c(-c3ccccc3)cn2)c(=O)c2ccccc21,59,< 1,,Not Active,inactive
Cn1nc(C(=O)Nc2ccc(-c3ccccc3)c(C(F)(F)F)c2)c(=O)c2ccccc21,130,2.3,,Not Active,inactive
Cn1cc(C(=O)Nc2ccc(-c3ccccc3)c(C(F)(F)F)n2)c(=O)c2ccccc21,120,< 1,,Not Active,inactive
Cn1cc(C(=O)Nc2ccc(-c3ccccn3)c(C(F)(F)F)c2)c(=O)c2ccccc21,110,11,,Not Active,inactive
Cn1cc(C(=O)Nc2ccc(-c3cccnc3)c(C(F)(F)F)c2)c(=O)c2ccccc21,110,18,,Not Active,inactive
Cn1cc(C(=O)Nc2ccc(-c3ccncc3)c(C(F)(F)F)c2)c(=O)c2ccccc21,110,15,,Not Active,inactive

# Other lines, results leading:
Emax [1] [%],Papp A→B [2] [×10⁻⁶ cm/s],Emax ([3]; filed as agonist) [%],EC50 [4],Emax [3],SMILES
100,2.2,,Not Active,inactive,Cn1cc(C(=O)Nc2ccc(-c3ccccc3)c(C(F)(F)F)c2)c(=O)c2cccnc21
120,3.4,,Not Active,inactive,Cn1cc(C(=O)Nc2ccc(-c3ccccc3)c(C(F)(F)F)c2)c(=O)c2ccncc21
86,16,,Not Active,inactive,Cn1cc(C(=O)Nc2ccc(-c3ccccc3)c(C(F)(F)F)c2)c(=O)c2ncccc21
100,5.7,,Not Active,inactive,Cn1cc(C(=O)Nc2ccc(-c3ccccc3)c(C(F)(F)F)c2)c(=O)c2cnccc21
